# Assay results: US20210139528A1, “CRYSTALLINE FORMS OF OBETICHOLIC ACID” (INTERCEPT PHARMACEUTICALS, INC., priority 2017, published 2021)
# Where a name gives a salt, the structure may show the parent alone.
# Assays:
# [1] = Storage at elevated temperature/humidity, solid form checked by XRPD
# [2] = Gravimetric Vapor Sorption (GVS); format: physicochemical; details: for GVS water uptake: 0-90% RH range, about 25° C.; for XRPD post GVS (form recovered after the experiment): after GVS cycle 0-90% RH
# Procedure: Sorption isotherms were obtained using a SMS DVS Intrinsic moisture sorption analyzer, controlled by DVS Intrinsic Control software v1.0.1.2 (or v 1.0.1.3). The sample temperature was maintained at about 25° C. by the instrument controls. The humidity was controlled by mixing streams of dry and wet nitrogen, with a total flow rate of about 200 mL/min. The relative humidity was measured by a calibrated Rotronic probe (dynamic range of about 1.0-100% RH), located near the sample. The weight change, (mass relaxation) of the sample as a function of % RH was constantly monitored by the microbalance (accuracy ±0.005 mg). Typically, about 18-20 mg of sample was placed in a tared mesh stainless steel basket under ambient conditions. The sample was loaded and unloaded at about 40% RH and about 25° C. (typical room conditions). A moisture sorption isotherm was performed as outlined in Table 1 (2 scans giving 1 complete cycle). The standard isotherm was performed at about 25° C. at about 10% RH intervals over a 0-90% RH range. Data analysis was carried out using Microsoft Excel using DVS Analysis Suite v6.2 (or 6.1 or 6.0). The sample was recovered after completion of the isotherm and re-analysed by XRPD.
"Stability on storage at 25° C./97% RH (XRPD) ([1]; 25° C./97% RH, 7 days)","Stability on storage at 40° C./75% RH (XRPD) ([1]; 40° C./75% RH, 7 days)","Stability on storage at 40° C./75% RH (XRPD), screening sample ([1]; screening sample, 40° C./75% RH, 23 days)",GVS water uptake [2],GVS water uptake ([2]; listed as cocrystal),XRPD post GVS (form recovered after the experiment) [2],XRPD post GVS (form recovered after the experiment) ([2]; listed as cocrystal),Molecule
amorphous,unchanged,possible form change,–,–,–,–,CC[C@H]1[C@@H](O)[C@@H]2[C@H](CC[C@]3(C)[C@@H]([C@H](C)CCC(=O)O)CC[C@@H]23)[C@@]2(C)CC[C@@H](O)C[C@@H]12 [obeticholic acid monoammonium salt]
–,–,–,ca. 1 % w/w,1% water uptake,no change,Unchanged by XRPD,Obeticholic acid-ursodeoxycholic acid (2:1) cocrystal [OCA:UDCA cocrystal]
